The structures appear in SMILES notation. Bounds are passed on as bounds.

The test system of experiment [1] is PTPN2. The experiment is described as follows: HiBiT-Degradation B16F10.4 PTPN2. Type of experiment: cell-based. Conditions: B16F10.4 cells, 24.0 hours. In general terms: The HiBiT peptide binds its large partner to form an active luciferase.
In experiment [2] the target is T1, PTPN2 (Homo sapiens, UniProt P17706).
T1 construct: expressed in transfected cells; host or cells: 293T (293T.109 HiBiT-PTPN2 line; parental 293T WT from ATCC)
T1 sequence (P17706 1-415): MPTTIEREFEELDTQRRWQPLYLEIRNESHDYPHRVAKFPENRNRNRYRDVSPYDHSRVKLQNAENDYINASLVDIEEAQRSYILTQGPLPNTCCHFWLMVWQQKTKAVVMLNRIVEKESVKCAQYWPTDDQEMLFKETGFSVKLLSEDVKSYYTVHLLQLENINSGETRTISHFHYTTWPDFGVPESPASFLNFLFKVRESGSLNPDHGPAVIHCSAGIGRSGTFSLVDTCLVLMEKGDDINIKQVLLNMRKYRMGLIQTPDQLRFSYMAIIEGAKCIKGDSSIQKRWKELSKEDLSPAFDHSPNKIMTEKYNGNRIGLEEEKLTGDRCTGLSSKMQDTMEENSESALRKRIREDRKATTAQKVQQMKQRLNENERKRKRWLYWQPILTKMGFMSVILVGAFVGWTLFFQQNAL
The experiment is described as follows: HiBiT-Degradation 293T.109 PTPN2 (Nano-Glo HiBiT Lytic Assay). Type of experiment: cell-based. To be noted: 293T.109 (HiBiT-PTPN2) cells, 24.0 hours. The source says:
Dulbecco's modified Eagle medium (DMEM) without phenol red and fetal bovine serum (FBS) were purchased from Gibco (Grand Island, NY, USA). Nano-Glo® HiBIT Lytic Assay System was purchased from Promega (Madison, WI, USA). 293T.109 (HiBiT-PTPN2) cell line was generated by ectopically expressing PTPN2 with N-terminal HiBiT fusion tag in 293T WT cell line purchased from ATCC (Manassas, VA, USA). Cell culture flasks and 384-well microplates were acquired from VWR (Radnor, PA, USA).
PTPN2 degradation was determined based on quantification of luminescent signal using Nano-Glo® HiBIT Lytic Assay kit. Test compounds were added to the 384-well plate from a top concentration of 10 μM with 11 points, half log titration in duplicates. 293T.109 cells were added into 384-well plates at a cell density of 5000 cells per well. The plates were kept at 37° C. with 5% CO2 for 24 hours. The cells treated in the absence of the test compound were the negative control and the cells without Nano-Glo® HiBiT Lytic reagent were the positive control. After 24-hour incubation, Nano-Glo® HiBIT Lytic Assay reagents were added to the cells. Luminescence was acquired on EnVision™ Multilabel Reader (PerkinElmer, Santa Clara, CA, USA).

For `Cn1c(=O)n(C2CCC(=O)NC2=O)c2ccc([C@H]3CC[C@@H](CNC(=O)c4ccc5c(F)c(N6CC(=O)NS6(=O)=O)c(O)cc5c4)CC3)cc21` (single isomer, unassigned) [Example 75], the DC50 in the experiment on PTPN2 [1] and at PTPN2 [2] was 50 to 200 nM in each case.

Take `Cn1c(=O)n(C2CCC(=O)NC2=O)c2ccc([C@H]3CC[C@H](CNC(=O)c4ccc5c(F)c(N6CC(=O)NS6(=O)=O)c(O)cc5c4)CC3)cc21` (single isomer, unassigned) [Example 76]: the DC50 (in general, the concentration giving 50% degradation) with PTPN2 [1] lay in the range of 50 to 200 nM; at PTPN2 [2] it was 10 to 50 nM.

As to `Cn1c(=O)n(C2CCC(=O)NC2=O)c2ccc([C@H]3CC[C@@H](CC(=O)Nc4ccc5c(F)c(N6CC(=O)NS6(=O)=O)c(O)cc5c4)CC3)cc21` (single isomer, unassigned) [Example 81a, N-(6-(1,1-dioxido-4-oxo-1,2,5-thiadiazolidin-2-yl)-5-fluoro-7-hydroxynaphthalen-2-yl)-2-((1s,4s)-4-(1-(2,6-dioxopiperidin-3-yl)-3-methyl-2-oxo-2,3-dihydro-1H-benzo[d]imidazol-5-yl)cyclohexyl)acetamide], the DC50 with PTPN2 [1] and at PTPN2 [2] was 10 to 50 nM in each case.

Regarding `Cn1c(=O)n(C2CCC(=O)NC2=O)c2ccc([C@H]3CC[C@H](CC(=O)Nc4ccc5c(F)c(N6CC(=O)NS6(=O)=O)c(O)cc5c4)CC3)cc21` (single isomer, unassigned) [Example 81b, N-(6-(1,1-dioxido-4-oxo-1,2,5-thiadiazolidin-2-yl)-5-fluoro-7-hydroxynaphthalen-2-yl)-2-((1r,4r)-4-(1-(2,6-dioxopiperidin-3-yl)-3-methyl-2-oxo-2,3-dihydro-1H-benzo[d]imidazol-5-yl)cyclohexyl)acetamide], the DC50 with PTPN2 [1] was 200 to 1000 nM; on PTPN2 [2], 10 to 50 nM.

Take `Cn1nc(C2CCC(=O)NC2=O)c2ccc([C@H]3CC[C@H](CC(=O)Nc4ccc5c(F)c(N6CC(=O)NS6(=O)=O)c(O)cc5c4)CC3)cc21` (single isomer, unassigned) [Example 179, N-(6-(1,1-dioxido-4-oxo-1,2,5-thiadiazolidin-2-yl)-5-fluoro-7-hydroxynaphthalen-2-yl)-2-((trans)-4-(3-(2,6-dioxopiperidin-3-yl)-1-methyl-1H-indazol-6-yl)cyclohexyl)acetamide]: the DC50 was in the range of 200 to 1000 nM in the experiment with PTPN2 [1] and 10 to 50 nM at PTPN2 [2].

As to `O=C1CCC(N2C(=O)c3cccc(NCC(=O)N4CCC(C(=O)NCCOc5ccc6cc(O)c(N7CC(=O)NS7(=O)=O)c(F)c6c5)CC4)c3C2=O)C(=O)N1` (stereo not drawn) [Example 1, N-(2-((7-(1,1-dioxido-4-oxo-1,2,5-thiadiazolidin-2-yl)-8-fluoro-6-hydroxynaphthalen-2-yl)oxy)ethyl)-1-((2-(2,6-dioxopiperidin-3-yl)-1,3-dioxoisoindolin-4-yl)glycyl)piperidine-4-carboxamide], the values for the DC50 in the experiment with PTPN2 [1] and on PTPN2 [2] were at least 1000 nM and 200 to 1000 nM, respectively.

With `O=C1CCC(N2Cc3c(NCC(=O)N4CCC(C(=O)NCCOc5ccc6cc(O)c(N7CC(=O)NS7(=O)=O)c(F)c6c5)CC4)cccc3C2=O)C(=O)N1` (stereo not drawn) [Example 2, N-(2-((7-(1,1-dioxido-4-oxo-1,2,5-thiadiazolidin-2-yl)-8-fluoro-6-hydroxynaphthalen-2-yl)oxy)ethyl)-1-((2-(2,6-dioxopiperidin-3-yl)-1-oxoisoindolin-4-yl)glycyl)piperidine-4-carboxamide], the DC50 with PTPN2 [1] and at PTPN2 [2] was 200 to 1000 nM each time.

As to `O=C1CCC(N2Cc3c(OCC(=O)N4CCC(C(=O)NCCOc5ccc6cc(O)c(N7CC(=O)NS7(=O)=O)c(F)c6c5)CC4)cccc3C2=O)C(=O)N1` (stereo not drawn) [Example 3, 1-[2-[2-(2,6-dioxo-3-piperidyl)-1-oxo-isoindolin-4-yl]oxyacetyl]-N-[2-[[8-fluoro-6-hydroxy-7-(1,1,4-trioxo-1,2,5-thiadiazolidin-2-yl)-2-naphthyl]oxy]ethyl]piperidine-4-carboxamide], the DC50 in the experiment on PTPN2 [1] is 200 to 1000 nM; on PTPN2 [2], 50 to 200 nM.

Regarding `Cn1c(=O)n(C2CCC(=O)NC2=O)c2ccc(C3CCN(CC(=O)NCCOc4ccc5cc(O)c(N6CC(=O)NS6(=O)=O)c(F)c5c4)CC3)cc21` (stereo not drawn) [Example 4, N-(2-((7-(1,1-dioxido-4-oxo-1,2,5-thiadiazolidin-2-yl)-8-fluoro-6-hydroxynaphthalen-2-yl)oxy)ethyl)-2-(4-(1-(2,6-dioxopiperidin-3-yl)-3-methyl-2-oxo-2,3-dihydro-1H-benzo[d]imidazol-5-yl)piperidin-1-yl)acetamide], the DC50 was at least 1000 nM with PTPN2 [1] and 50 to 200 nM on PTPN2 [2].

Consider `O=C(CN1CCC(c2ccc3c(c2)oc(=O)n3C2CCC(=O)NC2=O)CC1)NCCOc1ccc2cc(O)c(N3CC(=O)NS3(=O)=O)c(F)c2c1` (stereo not drawn) [Example 5, 2-[4-[3-(2,6-dioxo-3-piperidyl)-2-oxo-1,3-benzoxazol-6-yl]-1-piperidyl]-N-[2-[[8-fluoro-6-hydroxy-7-(1,1,4-trioxo-1,2,5-thiadiazolidin-2-yl)-2-naphthyl]oxy]ethyl]acetamide], for which the DC50 is at least 1000 nM with PTPN2 [1] and 50 to 200 nM at PTPN2 [2].

As for `Cn1c(=O)n(C2CCC(=O)NC2=O)c2ccc(C3CCN(CCC(=O)NCCOc4ccc5cc(O)c(N6CC(=O)NS6(=O)=O)c(F)c5c4)CC3)cc21` (stereo not drawn) [Example 6, N-(2-((7-(1,1-dioxido-4-oxo-1,2,5-thiadiazolidin-2-yl)-8-fluoro-6-hydroxynaphthalen-2-yl)oxy)ethyl)-3-(4-(1-(2,6-dioxopiperidin-3-yl)-3-methyl-2-oxo-2,3-dihydro-1H-benzo[d]imidazol-5-yl)piperidin-1-yl)propanamide], the results for the DC50 with PTPN2 [1] and at PTPN2 [2] were at least 1000 nM and 50 to 200 nM, respectively.

Turning to `O=C(CN1CCC(c2ccc3c4c(cccc24)C(=O)N3C2CCC(=O)NC2=O)CC1)NCCOc1ccc2cc(O)c(N3CC(=O)NS3(=O)=O)c(F)c2c1` (stereo not drawn) [Example 7, N-(2-((7-(1,1-dioxido-4-oxo-1,2,5-thiadiazolidin-2-yl)-8-fluoro-6-hydroxynaphthalen-2-yl)oxy)ethyl)-2-(4-(1-(2,6-dioxopiperidin-3-yl)-2-oxo-1,2-dihydrobenzo[cd]indol-6-yl)piperidin-1-yl)acetamide], the DC50 with PTPN2 [1] and at PTPN2 [2] was 10 to 50 nM throughout.

Take `Cn1nc(C2CCC(=O)NC2=O)c2ccc(C3CCN(CC(=O)NCCOc4ccc5cc(O)c(N6CC(=O)NS6(=O)=O)c(F)c5c4)CC3)cc21` (stereo not drawn) [Example 8, 2-[4-[3-(2,6-dioxo-3-piperidyl)-1-methyl-indazol-6-yl]-1-piperidyl]-N-[2-[[8-fluoro-6-hydroxy-7-(1,1,4-trioxo-1,2,5-thiadiazolidin-2-yl)-2-naphthyl]oxy]ethyl]acetamide]: the results for the DC50 with PTPN2 [1] and on PTPN2 [2] were 50 to 200 nM and 10 to 50 nM, respectively.

In the case of `Cn1c(=O)n(C2CCC(=O)NC2=O)c2cccc(OC3CCN(CC(=O)NCCOc4ccc5cc(O)c(N6CC(=O)NS6(=O)=O)c(F)c5c4)CC3)c21` (stereo not drawn) [Example 9, 2-[4-[1-(2,6-dioxo-3-piperidyl)-3-methyl-2-oxo-benzimidazol-4-yl]oxy-1-piperidyl]-N-[2-[[8-fluoro-6-hydroxy-7-(1,1,4-trioxo-1,2,5-thiadiazolidin-2-yl)-2-naphthyl]oxy]ethyl]acetamide], the DC50 lay within 200 to 1000 nM in the experiment with PTPN2 [1] and 50 to 200 nM at PTPN2 [2].

Consider `O=C(CN1CCC(c2ccc(NC3CCC(=O)NC3=O)cc2F)CC1)NCCOc1ccc2cc(O)c(N3CC(=O)NS3(=O)=O)c(F)c2c1` (stereo not drawn) [Example 10, 2-[4-[4-[(2,6-dioxo-3-piperidyl)amino]-2-fluoro-phenyl]-1-piperidyl]-N-[2-[[8-fluoro-6-hydroxy-7-(1,1,4-trioxo-1,2,5-thiadiazolidin-2-yl)-2-naphthyl]oxy]ethyl]acetamide], for which the DC50 was at least 1000 nM in the experiment with PTPN2 [1] and 50 to 200 nM at PTPN2 [2].

As to `O=C(CCCCCn1cc(CNc2cccc3c2C(=O)N(C2CCC(=O)NC2=O)C3=O)nn1)NCCOc1ccc2cc(O)c(N3CC(=O)NS3(=O)=O)c(Cl)c2c1` (stereo not drawn) [Example 49], the DC50 on PTPN2 [2] is at least 1000 nM.

Compound `O=C(CCOCCn1cc(CNc2cccc3c2C(=O)N(C2CCC(=O)NC2=O)C3=O)nn1)NCCOc1ccc2cc(O)c(N3CC(=O)NS3(=O)=O)cc2c1` (stereo not drawn) [Example 50] yielded a DC50 at PTPN2 [2] of at least 1000 nM.

`O=C(CCCCCn1cc(CNc2cccc3c2C(=O)N(C2CCC(=O)NC2=O)C3=O)nn1)NCCOc1ccc2cc(O)c(N3CC(=O)NS3(=O)=O)cc2c1` (stereo not drawn) [Example 51] returned a DC50 at PTPN2 [2] of at least 1000 nM.

Source of the values: patent US20240383886A1, “Protein Tyrosine Phosphatase Degraders and Methods of Use Thereof” (CALICO LIFE SCIENCES LLC, priority 2019, published 2024).
